Measured values as given in PubChem BioAssay AID1918940 (Molecular Pharmacology Branch, DTP, NCI, 2023).
pIC50: −log10 of the molar value.

Tested on: NCI-H211 complex spheroid viability
Experiment: Anticancer human tumor NCI-H211 cell line growth inhibition [LSD1];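 further: luminescent viability read after seven days of drug exposure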
Details: for pIC50: curve of first compound; for viability, T/C: stronger effect = lower value; active means viability on the fitted dose curve at most 10% of control; inactive means the rest
Excerpt: Multicellular complex tumor spheroid response to LSD1 Inhibitor Iadademstat in combination with a variety of drugs and investigational agents in selected tumor cell lines
The current study was undertaken to assess response to LSD1 inhibitors in combination with standard-of-care drugs and investigational agents in solid tumor complex spheroid models as well as in the K-562 leukemia. Complex spheroids include a stromal component modeled by human endothelial cells (HUVEC) and fibroblasts modeled by human mesenchymal stem cells (MSCs). The concentration ranges selected for each drug and investigational agent were based upon clinically achievable concentrations if the clinical Cmax of the agent was known.
Compounds. The drugs and investigational agents used in this study are listed on Table 1. All of the agents used, including staurosporine (NSC755774) and gemcitabine (NSC613327), were obtained from the Developmental Therapeutics Program, NCI. FDA-approved anticancer drugs are available from the NCI at http://dtp.nci.nih.gov/branches/dscb/oncology_drugset_explanation.html. Drugs and investigational agents were >95% pure by proton nuclear magnetic resonance (NMR) and liquid chromatography/mass spectrometry (LC/MS). Stock solutions were prepared at 400x in DMSO, stored at -70 degrees C, and diluted in fresh medium prior to their use. The final concentration of DMSO in cell culture wells never exceeded 0.25% (v/v). The FDA-approved anticancer drug set is available from the Developmental Therapeutics Program at https://dtp.cancer.gov/organization/dscb/obtaining/available_plates.htm. All drugs and investigational agents were tested over a range starting from a high concentration at or near the clinical Cmax and decreasing in half-log increments. If the clinical Cmax for an agent had not been determined, the highest concentration tested was 10 microM.
Cell Lines. The patient-derived cancer cell (PDC) lines: 292921-168-R-J2-PDC, K24384-001-R-PDC, and 521955-158-R2-J5-PDC pancreatic carcinomas, 556581-035-R-J1 ovarian carcinoma, 324938-238-R-J1-PDC, 855422-203-R-J1-PDC and 883617-216-R-J1-PDC urothelial bladder carcinomas, 743489-274-T-PDC renal cell carcinoma, 138582-R-J1 Merkel cell tumor, K60290-347-R-J1 and K57222-313-R-J1-PDC glioblastomas, 653999-131-R-J2-PDC, LG0703-F948-PDC, and 349418-098-R-PDC non-small cell lung carcinomas, 885512-296-R-J2-PDC, 171881-019-R-J1-PDC breast carcinomas and 186277-243-T-J2-PDC and 233499-124-R-J2-PDC colon carcinomas were obtained from the NCI Patient-Derived Models Repository (PDMR, https://pdmr.cancer.gov). The established cell lines NCI/ADR-RES (RRID:CVCL_14520 and OVCAR-5 (RRID:CVCL_1628) ovarian carcinomas, 786-O (RRID:CVCL_1051) and A498 (RRID:CVCL_A498) renal cell carcinoma, NCI-H211 (ATCC, cat. CRL-5824; RRID:CVCL_1529), NCI-H196 (ATCC, cat. CRL-5823, RRID:CVCL_1509), SW 1271 (ATCC, cat. CRL-2177, RRID:CVCL_1716) and NCI-H1876 (ATCC, cat. CRL-5902, RRID:CVCL_1503) small cell lung carcinomas, MDA-MB-231 (RRID:CVCL_0062) and MDA-MB-468 (RRID:CVCL_0419)breast carcinomas (10-12). Pooled donor human umbilical vein endothelial cells (HUVEC, Lonza, cat. CC-2519) and human mesenchymal stem cells (hMSC, Lonza, cat. PT-2501) were purchased from Lonza (Walkersville, MD).
Cell Culture. All cells were maintained in an incubator at 37 degrees C and 5% CO2 with 95% humidity. The PDC lines were cultured according to standard operating procedures established by the NCI PDMR (https://pdmr.cancer.gov). Briefly all PDCs were thawed and cultured in Matrigel-coated flasks prepared with a working solution of 1X Ham's F-12 nutrient mix, without supplementation (Invitrogen, Waltham, MA, cat. 11765054), 100 U/mL penicillin-streptomycin (Invitrogen, cat. 15140122), and 2.5% Matrigel (Corning Inc., Corning, NY, cat. 354248) for the first three passages. […]

[1] = second compound 0.1 µM, first compound 0.000949 µM
[2] = second compound 0.1 µM, first compound 0.003 µM
[3] = second compound 0.1 µM, first compound 0.00949 µM
[4] = second compound 0.1 µM, first compound 0.03 µM
[5] = second compound 0.1 µM, first compound 0.0949 µM
[6] = second compound 0.1 µM, first compound 0.3 µM
[7] = second compound 0.316 µM, first compound 0.000949 µM
[8] = second compound 0.316 µM, first compound 0.003 µM
[9] = second compound 0.316 µM, first compound 0.00949 µM
[10] = second compound 0.316 µM, first compound 0.03 µM
[11] = second compound 0.316 µM, first compound 0.0949 µM
[12] = second compound 0.316 µM, first compound 0.3 µM
[13] = second compound 1 µM, first compound 0.000949 µM
[14] = second compound 1 µM, first compound 0.003 µM
[15] = second compound 1 µM, first compound 0.00949 µM
[16] = second compound 1 µM, first compound 0.03 µM
[17] = second compound 1 µM, first compound 0.0949 µM
[18] = second compound 1 µM, first compound 0.3 µM
[19] = second compound 3.16 µM, first compound 0.000949 µM
[20] = second compound 3.16 µM, first compound 0.003 µM
[21] = second compound 3.16 µM, first compound 0.00949 µM
[22] = second compound 3.16 µM, first compound 0.03 µM
[23] = second compound 3.16 µM, first compound 0.0949 µM
[24] = second compound 3.16 µM, first compound 0.3 µM
[25] = second compound 10 µM, first compound 0.000949 µM
[26] = second compound 10 µM, first compound 0.003 µM
[27] = second compound 10 µM, first compound 0.00949 µM
[28] = second compound 10 µM, first compound 0.03 µM
[29] = second compound 10 µM, first compound 0.0949 µM
[30] = second compound 10 µM, first compound 0.3 µM

CCc1c2c(nc3ccc(O)cc13)-c1cc3c(c(=O)n1C2)COC(=O)[C@]3(O)CC + NC1CC1c1ccc(-c2cccc(O)c2)cc1
> 9.02: pIC50 (second compound 0.1 µM) | pIC50 (second compound 0.316 µM) | pIC50 (second compound 1 µM) | pIC50 (second compound 3.16 µM) | pIC50 (second compound 10 µM)
active: viability, T/C [1] 3.24% | viability, T/C [2] 1.7% | viability, T/C [3] 2.13% | viability, T/C [4] 0.66% | viability, T/C [5] 0.05% | viability, T/C [6] 0.14% | viability, T/C [7] 3.2% | viability, T/C [8] 1.12% | viability, T/C [9] 1.18% | viability, T/C [10] 1.44% | viability, T/C [11] 0.05% | viability, T/C [12] 0.15% | viability, T/C [13] 3.18% | viability, T/C [14] 1.68% | viability, T/C [15] 1.11% | viability, T/C [16] 0.97% | viability, T/C [17] 0.04% | viability, T/C [18] 0.16% | viability, T/C [19] 2.71% | viability, T/C [20] 1.57% | viability, T/C [21] 1.28% | viability, T/C [22] 0.83% | viability, T/C [23] 0.05% | viability, T/C [24] 0.2% | viability, T/C [25] 2.86% | viability, T/C [26] 1.99% | viability, T/C [27] 1.75% | viability, T/C [28] 1.25% | viability, T/C [29] 0.17% | viability, T/C [30] 0.2%

Nc1ccn(C2OC(CO)C(O)C2(F)F)c(=O)n1 (stereo not given) + NC1CC1c1ccc(-c2cccc(O)c2)cc1
active: viability, T/C [1] 4.79% | viability, T/C [2] 3.12% | viability, T/C [3] 3.86% | viability, T/C [4] 4.15% | viability, T/C [5] 4.2% | viability, T/C [6] 3.74% | viability, T/C [7] 3.95% | viability, T/C [8] 4.1% | viability, T/C [9] 4.15% | viability, T/C [10] 3.65% | viability, T/C [11] 3.64% | viability, T/C [12] 3.81% | viability, T/C [13] 3.83% | viability, T/C [14] 4.15% | viability, T/C [15] 4.41% | viability, T/C [16] 3.58% | viability, T/C [17] 3.35% | viability, T/C [18] 4.53% | viability, T/C [19] 5.21% | viability, T/C [20] 4.54% | viability, T/C [21] 4.13% | viability, T/C [22] 4.09% | viability, T/C [23] 3.28% | viability, T/C [24] 4.65% | viability, T/C [25] 4.67% | viability, T/C [26] 4.95% | viability, T/C [27] 4.53% | viability, T/C [28] 5.27% | viability, T/C [29] 3.89% | viability, T/C [30] 4.22%
> 9.02: pIC50 (second compound 0.1 µM) | pIC50 (second compound 0.316 µM) | pIC50 (second compound 1 µM) | pIC50 (second compound 3.16 µM) | pIC50 (second compound 10 µM)

O=C(c1cc(Cc2n[nH]c(=O)c3ccccc23)ccc1F)N1CCN(C(=O)C2CC2)CC1 + NC1CC1c1ccc(-c2cccc(O)c2)cc1
active: viability, T/C (second compound 0.1 µM, first compound 0.316 µM) 7.94% | viability, T/C (second compound 0.1 µM, first compound 1 µM) 5.7% | viability, T/C (second compound 0.1 µM, first compound 3.16 µM) 6.16% | viability, T/C (second compound 0.1 µM, first compound 10 µM) 5.03% | viability, T/C (second compound 0.316 µM, first compound 0.316 µM) 8.13% | viability, T/C (second compound 0.316 µM, first compound 1 µM) 5.19% | viability, T/C (second compound 0.316 µM, first compound 3.16 µM) 4.85% | viability, T/C (second compound 0.316 µM, first compound 10 µM) 5.84% | viability, T/C (second compound 1 µM, first compound 0.316 µM) 7.69% | viability, T/C (second compound 1 µM, first compound 1 µM) 5.3% | viability, T/C (second compound 1 µM, first compound 3.16 µM) 6.41% | viability, T/C (second compound 1 µM, first compound 10 µM) 5.15% | viability, T/C (second compound 3.16 µM, first compound 0.316 µM) 8.34% | viability, T/C (second compound 3.16 µM, first compound 1 µM) 5.75% | viability, T/C (second compound 3.16 µM, first compound 3.16 µM) 6.96% | viability, T/C (second compound 3.16 µM, first compound 10 µM) 5.88% | viability, T/C (second compound 10 µM, first compound 0.316 µM) 8.43% | viability, T/C (second compound 10 µM, first compound 1 µM) 5.92% | viability, T/C (second compound 10 µM, first compound 3.16 µM) 6.26% | viability, T/C (second compound 10 µM, first compound 10 µM) 6.28%
inactive: viability, T/C (second compound 0.1 µM, first compound 0.0316 µM) 47.4% | viability, T/C (second compound 0.1 µM, first compound 0.1 µM) 25% | viability, T/C (second compound 0.316 µM, first compound 0.0316 µM) 48.9% | viability, T/C (second compound 0.316 µM, first compound 0.1 µM) 24.5% | viability, T/C (second compound 1 µM, first compound 0.0316 µM) 44% | viability, T/C (second compound 1 µM, first compound 0.1 µM) 22% | viability, T/C (second compound 3.16 µM, first compound 0.0316 µM) 49.2% | viability, T/C (second compound 3.16 µM, first compound 0.1 µM) 19.5% | viability, T/C (second compound 10 µM, first compound 0.0316 µM) 34.4% | viability, T/C (second compound 10 µM, first compound 0.1 µM) 17.2%
> 7.50: pIC50 (second compound 0.1 µM) | pIC50 (second compound 0.316 µM) | pIC50 (second compound 1 µM) | pIC50 (second compound 3.16 µM) | pIC50 (second compound 10 µM)
